From patent US10213451B2, “Methods and compounds for modulating the secretion or expression of adhesion proteins or angiopoietins of cells” (PACIFIC ARROW LIMITED, priority 2004, dated 2019)
Converted amounts (≈) assume the structure as drawn.

What was measured:
HeLa cells = experiment: MTT assay HeLa; format: cell-based; conditions: Homo sapiens
Method: Cells. Human cancer cell lines were obtained from American Type Culture Collection: HTB-9 (bladder), HeLa-S3 (cervix), DU145 (prostate), H460 (lung), MCF-7 (breast), K562 (leukocytes), HCT116 (colon), HepG2 (liver), U2OS (bone), T98G (brain), SK-MEL-5 (Skin) and OVCAR-3 (ovary). The cells were grown in following culture media: HeLa-53, DU145, MCF-7, Hep-G2 and T98G are in MEN (Earle's salts); HTB-9, H460, K562 and OVCAR-3 in RPMI-1640; HCT-116 and U2OS in McCoy-5A. They are supplemented with 10% fetal calf serum, glutamine and antibiotics, and incubated in an incubator with 5% CO2 humidified at 37° C.
MTT Assay. The procedure for MTT assay followed the method described by Carmichael et al. (1987) with modifications. […] The formazan (product of the reduction of tetrazolium by viable cells) formed and was dissolved with DMSO and the O.D. at 490 nm, and was measured by an ELISA reader. The MTT level of the cells before drug-treatment was also measured (T0). The % cell-growth (% G) is calculated as: % G=(TD−T0/TC−T0)×100(1), where TC or TD represents O.D. readings of control or drug-treated cells. When T0>TD, then the cytotoxicity (LC) expressed as % of the control is calculated as: % LC=(TD−T0/T0)×100(2).

OVCA 429 = experiment: MTT assay OVCA 429; format: cell-based; conditions: Homo sapiens, OVCA429; OVCA 429, Serous
Method: (§1) Majority of ovarian cancers arise from the surface epithelium of ovary, most of them belong to the histological subtypes of clear cell and serous carcinoma. We obtained 10 more human ovarian carcinoma cell-lines of these histological subtypes for these studies. The inhibition activity exerted by Xanifolia-Y was determined with MTT assay.

OVCA 432 = experiment: MTT assay OVCA 432; format: cell-based; conditions: Homo sapiens, OVCA432; OVCA 432, Serous
Method: as §1

OVCA 433 = experiment: MTT assay OVCA 433; format: cell-based; conditions: Homo sapiens, OVCA433; OVCA 433, Serous
Method: as §1

[1] = system: Hey8A cells attached to flasks; experiment: Inhibition of cell adhesion to flasks, Hey8A; format: cell-based, human; conditions: 5 ug/ml, 5 hours
Method: (§2) Methods and Results. ES2 or Hey8A cells were plated in T25 flasks with medium containing 5 ug/ml of Xanifolia-Y. Cultures were incubated for 5 hours. Attached cells were removed from flasks by trypsinization and the amounts were counted. Compare to no drug controls, 86±4% of ES2 cells and 67±8% of Hey8A cells were found attached to flasks under this condition. At 5 ug/ml Xanifolia-Y, over 90% of unattached cells are alive as determined by the trypan Blue exclusion assay and by their ability to re-attach to flasks when plating in medium without Xanifolia-Y. However, with 10 ug/ml Xanifolia-Y, less than 40% of cells attached to flasks and many of them are dead cells.
as §2, with “Results:” for “Results.”

[2] = system: blood vessels in ES2 (human ovarian cancer) xenograft tumor; experiment: Genesis of blood vessel in xenograft tumor; format: in vivo, Athymic Nu/Nu mice; conditions: i.p. 2.5 mg/kg on days 10-15 and 18-22, H&E sections
Method: Method: Athymic Nu/Nu mice (5-6 weeks old) are divided into two groups (1 and 2) with 5 animals in each group. On day 0, all mice were transplanted intra-peritoneally with one million ES2 (human ovarian cancer) cells. Animals were randomly divided into two groups:
Group 2: Drug-treatment group. On days 10-15 and 18-22, animals received daily drug administration of Xanifolia-Y, by i.p. route at dosage of 2.5 mg/kg.
Animals with high tumor burden were euthanized and solid tumors were taken out from these mice (between 18-27 days). Tumor tissues fixed with formalin at room temperature. The fixed tissues were sectioned and stained with Haematoxylin and eosin (H&E). The red blood cells inside the micro blood vessels were identified under a microscope.

**Q.** Which results are given for `C/C=C(/C)C(=O)O[C@H]1[C@H](OC(=O)/C(C)=C\C)[C@@]2(CO)C(CC1(C)C)C1=CCC3[C@@]4(C)CC[C@H](O[C@@H]5OC(C(=O)O)[C@@H](O)C(O[C@@H]6O[C@@H](CO)C(O)C6O)C5O[C@@H]5OC(CO)[C@H](O)C(O)C5O)C(C)(C)C4CC[C@@]3(C)[C@]1(C)[C@@H](O)[C@H]2O` (stereo partly drawn) [Xanifolia-Y, 3-O-[β-D-galactopyranosyl (1→2)]-α-L-arabinofuranosy (1→3)-β-D-glucuronopyranosyl-21,22-O-diangeloyl-3β, 15α, 16α, 21β, 22α, 28-hexahydroxyolean-12-ene]?
**A.** IC50 (HeLa cells): 20 µg/mL (≈ 17.5 µM); IC50 (OVCA 429): 7 µM; IC50 (OVCA 432): 4.4 µM; IC50 (OVCA 433): 8.8 µM; cells attached to flasks, compared to no drug controls [1]: 67±8%; blood vessels in tumor sections [2]: more blood vessels were observed in the control Group1 than those in the drug-treated Group 2; blood vessels in tumor sections ([2]; listed as Xanifolia Y): More blood vessels were observed in the control Group 1 than those in the drug-treated Group 2
